According to patent US3931299A, “9β-Formyl prostaglandin derivatives” (American Home Products Corporation, priority 1974, dated 1976):

Assays:
[1] = tested on: bronchoconstricting effects of a standard dose of acetylcholine; assay: bronchodilation in the guinea pig by aerosol inhalation (method of Rosenthale et al.); assay type: in vivo
Description: In using the compounds of the invention to produce bronchodilating effects in warm-blooded animals, they may be administered in a variety of dosage forms: oral, injectable, and aerosol inhalation. Aerosol inhalation is a preferred method because of its rapid onset of action, great potency, and specificity of action. The particular dosage to obtain the bronchodilating effect will vary with the particular compound employed, the particular animal involved, and the degree of bronchodilation desired. In the guinea pig, by aerosol inhalation, the dose to produce bronchodilation is from about 0.15 micrograms to about 100 micrograms, and preferably from about 0.15 to about 50 micrograms. The bronchodilation produced upon aerosol inhalation can be observed by the method of Rosenthale et al., J. Pharmacol. Exp. Ther., 178, 541 (1971).
Using this procedure, the following results were obtained.

[2] = hypotension in the anesthetized dog by the intravenous route; assay type: in vivo
Method: In the use of the compounds of the invention to produce hypotensive effects in warm-blooded animals, administration by the injectable route is preferred, preferably the intravenous route.
Thus in the anesthetized dog by the intravenous route the dose to produce hypotension is from about 1 μg/kg. to about 200 μg/kg. and preferably from about 10 μg/kg. to about 100 μg/kg.
Using this procedure the following results were obtained.

Row | Compound | Percent inhibition of the bronchoconstricting effects of a standard dose of acetylcholine ([1]; dose 1.5 μg) | Δb.p. ([2]; dose 10 μg/kg.) | Δb.p. ([2]; dose 100 μg/kg.) | Percent inhibition of the bronchoconstricting effects of a standard dose of acetylcholine ([1]; dose 0.15 μg)
1 | C=C1CC[C@H](/C=C/[C@@H](O)CCCCC)[C@H]1C/C=C\CCCC(=O)O [7-[2β-((3S)-3-Hydroxy-Trans-1-Octenyl)-5-Methylene-1α-Cyclopentyl]-Cis-5-Heptenoic Acid] | 46% |  |  | 
2 | CCCCC[C@H](O)/C=C/[C@H]1CC[C@@H](C=O)[C@@H]1C/C=C\CCCC(=O)O [7-[5β-Formyl-2β-((3S)-3-Hydroxy-Trans-1-Octenyl)-1α-Cyclopentyl]-Cis-5-Heptenoic Acid] | 55% | -17 mm. Hg |  | 
3 | CCCCC[C@H](O)/C=C/[C@H]1CC[C@@H](CO)[C@@H]1C/C=C\CCCC(=O)O [7-[5β-Hydroxymethyl-2β-((3S)-3-Hydroxy-Trans-1-Octenyl)-1α-Cyclopentyl]-Cis-5-Heptenoic Acid] |  |  | -27 mm. Hg | 
4 | C=C1CC[C@H](/C=C/[C@@H](O)CCCCC)[C@H]1CCCCCCC(=O)O [2β-[(3S)-3-Hydroxy-Trans-1-Octenyl]-5-Methylene-1α-Cyclopentaneheptanoic Acid] |  |  | -32 mm. Hg | 
5 | CCCCC[C@H](O)/C=C/[C@H]1CC[C@@H](C=O)[C@@H]1CCCCCCC(=O)O [5β-Formyl-2β-[(3S)-3-Hydroxy-Trans-1-Octenyl]-1α-Cyclopentane Heptanoic Acid] |  |  | -27 mm. Hg | 36%
